Assay results taken from the NIST ThermoML archive (doi:10.1021/je3012452).
Numbers after ± are expanded uncertainties.

What was measured:
[1] = DTA
[2] = Molar enthalpy of transition or fusion; conditions: DSC

Normal melting temperature ([1]; Crystal) | Molar enthalpy of transition or fusion ([2]; Crystal) | Normal melting temperature ([1]; Crystal 1) | Triple point temperature ([1]; Crystal 2) | Molar enthalpy of transition or fusion ([2]; Crystal 1) | Molar enthalpy of transition or fusion ([2]; Crystal 2) | Triple point temperature ([1]; Crystal 3) | Molar enthalpy of transition or fusion ([2]; Crystal 3) | Structure (SMILES)
128.5 ± 0.9 °C | 4.76 ± 0.12 kcal/mol | – | – | – | – | – | – | CC(C)C(N)=O [2-methylpropanamide]
– | – | 125.1 ± 0.5 °C | 360.6 ± 0.9 K | 5.38 ± 0.311 kcal/mol | 0.418 ± 0.105 kcal/mol | – | – | CCCC(CCC)C(N)=O [2-propylpentanamide]
– | – | 95.5 ± 1.1 °C | 356.1 ± 0.5 K | 3.87 ± 0.12 kcal/mol | 0.813 ± 0.0478 kcal/mol | 319 ± 1.6 K | 1.79 ± 0.143 kcal/mol | CCCCCCC(N)=O [heptanamide]
– | – | 99.2 ± 2.8 °C | 306.1 ± 0.5 K | 4.02 ± 0.167 kcal/mol | 1.22 ± 0.0717 kcal/mol | – | – | CCCCCC(N)=O [hexanamide]
